Data: patent publication US20170233491A1 (Merrimack Pharmaceuticals, Inc., priority 2016, published 2017)
Where a name gives a salt, the structure may show the parent alone.

Legend:
[1] = tested on: HRG mRNA expression in CFPAC-1 cells; assay: HRG mRNA expression in CFPAC-1 cells after chemotherapy treatment; assay type: cell-based; conditions: FIG. 3
Description: HRG mRNA expression was quantified after 24 h treatment with 1 mM of gemcitabine or 0.1 mM of paclitaxel, and normalized to housekeeping gene expression. “Vehicle”=drug-free vehicle control; “Gem”=gemcitabine treated; “Pac”=paclitaxel treated.

[2] = molecular target: receptor complexes containing IGF-1R and ErbB3 (Homo sapiens, UniProt P08069+P21860); conditions: including heterodimers with insulin receptor and with ErbB2; cited from earlier work
[3] = tested on: IGF-1R and ErbB3 signaling; assay: growth factor-induced (IGF-1, heregulin) signaling in pancreatic cancer models; assay type: cell-based; conditions: preclinical research
[4] = tested on: preclinical models of pancreatic cancer; assay: preclinical models of pancreatic cancer, combination with nab-paclitaxel and gemcitabine; assay type: in vivo; conditions: KRAS mutant pancreatic cancer models
[5] = tested on: preclinical models of pancreatic cancer; conditions: combined with nab-paclitaxel and gemcitabine; cited from earlier work
[6] = Phase 1 study; cited from earlier work
pancreatic cancer models = assay: IGF-1- and HRG-mediated insensitivity to gemcitabine or paclitaxel; assay type: cell-based; conditions: preclinical research
[7] = tested on: IGF-1R and ErbB3 signaling; conditions: background description; cited from earlier work

receptor complexes containing IGF-1R and ErbB3, sequence (P08069 31-736 limits assumed): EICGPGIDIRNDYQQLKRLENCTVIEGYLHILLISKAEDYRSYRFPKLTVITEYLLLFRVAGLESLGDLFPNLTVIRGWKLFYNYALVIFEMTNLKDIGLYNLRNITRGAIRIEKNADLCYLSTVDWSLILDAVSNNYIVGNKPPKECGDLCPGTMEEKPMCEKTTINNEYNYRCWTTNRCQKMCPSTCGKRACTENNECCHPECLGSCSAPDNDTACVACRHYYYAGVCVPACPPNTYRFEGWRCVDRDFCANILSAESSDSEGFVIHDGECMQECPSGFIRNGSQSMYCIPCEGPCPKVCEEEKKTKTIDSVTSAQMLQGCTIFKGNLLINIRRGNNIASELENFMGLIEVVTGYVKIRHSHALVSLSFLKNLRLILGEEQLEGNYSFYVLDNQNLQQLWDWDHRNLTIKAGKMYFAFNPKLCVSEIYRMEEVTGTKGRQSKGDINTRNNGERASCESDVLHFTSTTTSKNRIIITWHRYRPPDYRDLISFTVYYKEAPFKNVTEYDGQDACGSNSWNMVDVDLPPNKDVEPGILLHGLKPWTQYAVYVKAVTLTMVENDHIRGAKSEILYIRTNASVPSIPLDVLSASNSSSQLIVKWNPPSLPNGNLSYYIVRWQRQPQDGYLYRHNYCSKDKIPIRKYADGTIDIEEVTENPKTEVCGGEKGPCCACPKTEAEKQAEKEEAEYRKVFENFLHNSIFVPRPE
receptor complexes containing IGF-1R and ErbB3, sequence (P08069 741-1367 limits assumed): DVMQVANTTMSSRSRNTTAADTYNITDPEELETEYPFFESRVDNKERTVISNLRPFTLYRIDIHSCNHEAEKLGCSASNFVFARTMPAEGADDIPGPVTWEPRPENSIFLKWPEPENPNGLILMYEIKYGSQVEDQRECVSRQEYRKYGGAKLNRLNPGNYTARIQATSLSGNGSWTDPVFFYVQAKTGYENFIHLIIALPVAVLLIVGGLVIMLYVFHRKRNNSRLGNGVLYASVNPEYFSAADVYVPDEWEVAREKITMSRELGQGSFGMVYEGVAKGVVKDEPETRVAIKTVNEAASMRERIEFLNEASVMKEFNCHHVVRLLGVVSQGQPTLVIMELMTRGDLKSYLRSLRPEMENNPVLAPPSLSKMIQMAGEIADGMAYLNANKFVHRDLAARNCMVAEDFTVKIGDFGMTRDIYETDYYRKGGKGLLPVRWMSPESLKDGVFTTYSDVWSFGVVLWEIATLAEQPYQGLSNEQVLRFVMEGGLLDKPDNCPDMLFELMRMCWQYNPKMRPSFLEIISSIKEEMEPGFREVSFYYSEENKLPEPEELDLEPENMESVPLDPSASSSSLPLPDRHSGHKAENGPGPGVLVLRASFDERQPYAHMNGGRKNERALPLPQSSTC
receptor complexes containing IGF-1R and ErbB3, sequence (P21860 20-1342): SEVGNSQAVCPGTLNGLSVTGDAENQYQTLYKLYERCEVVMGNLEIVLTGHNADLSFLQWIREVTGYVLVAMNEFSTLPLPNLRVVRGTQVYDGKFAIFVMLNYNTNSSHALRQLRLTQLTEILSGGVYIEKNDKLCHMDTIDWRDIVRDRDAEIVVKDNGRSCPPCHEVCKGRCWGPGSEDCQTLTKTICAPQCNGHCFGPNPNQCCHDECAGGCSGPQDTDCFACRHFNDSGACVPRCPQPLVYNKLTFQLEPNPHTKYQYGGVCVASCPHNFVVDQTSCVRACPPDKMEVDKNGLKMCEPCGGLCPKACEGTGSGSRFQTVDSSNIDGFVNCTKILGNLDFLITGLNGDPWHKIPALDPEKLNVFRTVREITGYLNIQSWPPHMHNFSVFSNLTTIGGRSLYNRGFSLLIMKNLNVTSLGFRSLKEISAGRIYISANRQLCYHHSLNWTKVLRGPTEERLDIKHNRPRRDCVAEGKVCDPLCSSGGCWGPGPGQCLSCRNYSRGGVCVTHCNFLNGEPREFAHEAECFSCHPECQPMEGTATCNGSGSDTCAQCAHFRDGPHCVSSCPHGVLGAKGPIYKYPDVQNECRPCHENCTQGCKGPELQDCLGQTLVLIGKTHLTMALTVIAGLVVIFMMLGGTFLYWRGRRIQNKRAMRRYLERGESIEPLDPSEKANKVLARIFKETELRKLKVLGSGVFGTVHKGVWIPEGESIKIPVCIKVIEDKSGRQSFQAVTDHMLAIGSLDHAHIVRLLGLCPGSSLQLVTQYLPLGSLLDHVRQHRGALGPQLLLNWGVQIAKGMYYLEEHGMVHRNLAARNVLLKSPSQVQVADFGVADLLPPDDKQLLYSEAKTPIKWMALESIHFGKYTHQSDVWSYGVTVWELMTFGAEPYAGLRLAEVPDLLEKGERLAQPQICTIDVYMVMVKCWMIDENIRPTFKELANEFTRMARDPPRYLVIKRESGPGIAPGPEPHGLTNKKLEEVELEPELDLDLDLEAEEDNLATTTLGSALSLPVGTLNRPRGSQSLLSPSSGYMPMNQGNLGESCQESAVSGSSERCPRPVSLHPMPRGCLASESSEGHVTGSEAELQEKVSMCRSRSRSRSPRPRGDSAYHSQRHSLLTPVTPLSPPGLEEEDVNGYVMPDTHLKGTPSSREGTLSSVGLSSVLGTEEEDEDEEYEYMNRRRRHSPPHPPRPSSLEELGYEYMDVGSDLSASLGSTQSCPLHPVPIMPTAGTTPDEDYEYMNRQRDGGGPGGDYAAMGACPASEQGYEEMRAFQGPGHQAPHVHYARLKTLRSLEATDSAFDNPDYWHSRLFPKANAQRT

## Nc1ccn([C@@H]2O[C@H](CO)[C@@H](O)C2(F)F)c(=O)n1 [gemcitabine, 2′-deoxy-2′,2′-difluorocytidine monohydrochloride (-isomer)]
[1]; 24 h treatment with 1 mM of gemcitabine
  HRG mRNA expression, normalized to housekeeping gene expression: increases HRG mRNA expression

## CC(=O)O[C@H]1C(=O)[C@@]2(C)[C@H]([C@H](OC(=O)c3ccccc3)[C@]3(O)C[C@H](OC(=O)[C@H](O)[C@@H](NC(=O)c4ccccc4)c4ccccc4)C(C)=C1C3(C)C)[C@]1(OC(C)=O)CO[C@@H]1C[C@@H]2O [paclitaxel]
[1]; 24 h treatment with 0.1 mM of paclitaxel
  HRG mRNA expression, normalized to housekeeping gene expression: increases HRG mRNA expression

## Istiratumab: recombinant fully human bispecific tetravalent antibody directed at IGF-1R and ErbB3; light chain SEQ ID NO: 1, heavy chain SEQ ID NO: 2
[2]
  degradation of receptor complexes containing IGF-1R and ErbB3: induces degradation of receptor complexes containing IGF-1R and ErbB3
[3]
  growth factor-induced survival signaling: inhibits growth factor-induced survival signaling
[4]
  potentiation of anti-tumor activity of nab-paclitaxel/gemcitabine: potentiates the anti-tumor activity of nab-paclitaxel/gemcitabine
[5]
  tumor regression: significant tumor regression, including durable complete responses
[6]
  safety and tolerability: safe and tolerable
Pancreatic cancer models
  reversal of IGF-1- and HRG-mediated insensitivity to gemcitabine or paclitaxel: reverses IGF-1- and HRG-mediated insensitivity to gemcitabine or paclitaxel
[7]
  IGF-1 and heregulin-induced signaling: co-blocks IGF-1 and heregulin-induced signaling
